Data taken from patent US20250002492A1, “COMPOSITIONS OF FOLATE ABSORPTION INHIBITORS AND METHODS THEREOF” (THE TEXAS A&M UNIVERSITY SYSTEM, priority 2023, published 2025).
Read-outs that look alike come from different tables or passages of the source.

Legend:
[1] = test system: mice; conditions: cited from earlier work
[2] = test system: C. elegans strain N2; experiment: Lifespan assay in worms; type: in vivo
Excerpt: The ability of pharmacological or other interventions to extend the lifespan of different organisms is often conserved. For the instant example, the disclosed compounds can be tested for their ability to extend the lifespan of the worm model system Caenorhabditis elegans (N2 strain) [see, e.g., PMID: 19488025]. The organisms can be first exposed to the compounds as adults, 2-3 days after the egg stage until their death, on solid media containing the compounds at the desired concentration. The temperature can be kept constant at 20° C. throughout the assays. The bacteria used as food for the worms (Escherichia coli strain OP-50) can be dead (e.g., killed by lethal doses of ultraviolet radiation) to ensure that any effects on lifespan are not indirect, mediated through bacterial metabolism.
The assays were performed at 20° C. using C. elegans strain N2 and a bacterial strain (OP50) commonly used as food for the worms. Briefly, the assays were performed on solid agar nematode growth media (NGM) plates prepared fresh before each experiment. The bacterial lawn was exposed twice to a UV dose of 120 mJ/cm^2 using a UVC-515 Ultraviolet Multilinker (Ultra-Lum, Inc.). Streaking these UV-exposed bacteria to fresh LB agar plates (1% w/v tryptone, 0.5% w/v yeast extract, 1% w/v sodium chloride) produced no visible colonies. Methotrexate, or the ATIC inhibitor, was first dissolved in DMSO and then added to the media used to prepare the plates after autoclaving (the media were kept in a 50° C. water bath until the plates were poured). Mock-treated control plates contained only DMSO. At the start of each experiment, a sufficient number of eggs were collected from plates without any drugs and then placed on plates containing the indicated doses of each compound tested. After hatching and progression to the adult stage, animals were transferred to new plates (marked as the start of the lifespan assay) containing the drug tested and fluorodeoxyuridine (FUDR; dissolved in water), added at 50 μM to block hatching of new animals. The plates were scored at least every other day until all the worms died. If an animal responded to gentle touch, it was scored as alive, otherwise a death was recorded, and the animal was removed from the plate. Worms were transferred to fresh plates as needed (e.g., if there was evidence of microbial contamination, dryness/cracks on the agar surface, consumption of the bacterial lawn, or hatching of new animals that escaped the FUDR block). The reported lifespans were compiled from several independent experiments done over several months (9-10 months for the methotrexate experiments and 4-5 months for the ATIC inhibitor), each scored by multiple individuals (4-5 persons per experiment). No experiments were excluded from the analysis.

[3] = test system: C. elegans; conditions: 220 μM, treated at the adult stage; cited from earlier work
[4] = test system: S. cerevisiae strain BY4742; experiment: Replicative lifespan assay in yeast; type: cell-based
Method: The assays were performed in the standard S. cerevisiae strain BY4742 (MATα his3Δ1 leu2Δ0 lys2Δ0 ura3Δ0) on solid rich undefined media (YPD; 1% w/v yeast extract, 2% W/v peptone, 2% W/v dextrose, 2% w/v agar).
(§1) In the instant example, methotrexate (MTX), or the ATIC inhibitor (ATIC-Inh), was dissolved in dimethylsulfoxide (DMSO) and used at the final concentrations shown in FIGS. 2B-2D. The cell size measurements shown in FIG. 3 were also done in strain BY4742 in YPD.

[5] = test system: Swiss mice; conditions: 0-10 ppm in the diet in alternating weeks, male and female, 7 to 120 weeks of age; 5 of the 8 conditions tested; one case p=0.04; cited from earlier work
[6] = test system: S. cerevisiae strain BY4742; experiment: Cell size measurement in yeast (Z2 Channelyzer); type: cell-based; conditions: from 47 fL
Method: as §1
Briefly, overnight cultures were diluted to about 5×10^5 cells/mL in fresh media, allowed to proliferate for 2-3 h at 30° C., and then methotrexate was added at the indicated final concentrations. 4-5 h later, cell size was measured with a Z2 Channelyzer.

[7] = test system: yeast cells; experiment: Yeast cell proliferation; type: cell-based, S. cerevisiae; conditions: low doses (0.5-10 μM); not shown

## CN(Cc1cnc2nc(N)nc(N)c2n1)c1ccc(C(=O)N[C@@H](CCC(=O)O)C(=O)O)cc1 [methotrexate, 4-amino-N10-methylpteroylglutamic acid]
[1]; 5-week-old mice
  LD50: 59 mg/kg
[1]; 16-week-old mice
  LD50: 284 mg/kg
[2]; 1-3 μM, continuous exposure from embryo stage until death, p<2E-14 log-rank
  lifespan extension: ~15%
[2]; higher doses 10-100 μM, not shown
  lifespan: did not extend lifespan
[3]
  lifespan: did not extend their lifespan
[4]; 0.5-10 μM, p<0.05 log-rank test
  yeast replicative lifespan: increased yeast replicative lifespan
[4]; dose 1 μM
  maximal lifespan extension: ~15%
[4]; higher concentrations (above 10 μM; 50-100 μM)
  yeast replicative longevity: did not extend replicative longevity
[5]
  mean lifespan vs control group: mean lifespan was longer than in the control group
[6]; 50 μM
  cell size: 56 fL
[6]; 100 μM
  cell size: 64 fL
[6]; concentrations up to 10 μM
  cell size: 52 fL
[7]
  cell proliferation: did not affect cell proliferation significantly
